Read-outs that look alike come from different tables or passages of the source.
Columns and labels:
LM7 sarcospheres [1] = assay: Sarcosphere size (Incucyte); type: cell-based, human; conditions: 48-hour period
[2] = humans, cited from earlier work
LM7 sarcospheres [3] = assay: Sarcosphere resazurin metabolic activity (initial and secondary screens); type: cell-based, human; conditions: secondary screen; without MAP
Method: (§1) Khanna DVM, PhD (NCI). […] Medium was sterile filtered before use.
(§2) Highly metastatic osteosarcoma cells cultured in monolayers at 50% to 80% confluence were lifted with Accutase (Innovative Cell Technologies, Inc., cat. #NC9839010), resuspended in media, and diluted to the desired concentration. […] Following cell seeding, plates were centrifuged (1,000 g for 10 minutes at 4°C) and then incubated at 37°C with 5% CO2. […] Then, 100 μL drug treatment or vehicle was added to each well. […] Resazurin reduction on day 2 by vehicle-treated sarcospheres was compared with resazurin reduction on day 0 to calculate sarcosphere growth without drug over 2 days in selected experiments.
(§3) Plates were incubated at 37°C in 5% CO2 for 2 or 6 hours.
(§4) Sarcospheres were matured for 24 hours and then treated for 48 hours with media containing 10 µmol/L of each drug and 0.1% DMSO. […] Growth inhibition represents a more clinically translatable measure for screening studies in which a value of 0% represents stable disease since the start of treatment, values of 0% to 100% represent progression in which 100% is the untreated control, and values less than 0% represent regression in which −100% represents blank wells without sarcospheres.

[4] = test system: sarcospheres derived from 143B, MG63.3-GFP, and LM7 cell lines; assay: Sarcosphere resazurin metabolic activity, results stated across all three cell lines; type: cell-based, human; conditions: with and without MAP; vs belinostat, panobinostat, vorinostat, AR-42, resminostat
Method: as §1, §2, §3, §4

LM7 sarcospheres [5] = assay: Transient romidepsin treatment, recovery of metabolic activity; type: cell-based, human; conditions: 10–100 nmol/L; followed to day 14
Method: (§5) Sarcosphere losses were minimized by removing the media stepwise (25 μL/step, 10 μL/second) and by centering the sarcospheres in the middle of each well by centrifugation (1,000 g for 6 minutes) before each media exchange cycle. After each assay of metabolic activity, resazurin was removed by three cycles of media exchange and the media were changed on days 10 and 12 by one cycle.

143B sarcospheres = assay: as above; type: cell-based, human; conditions: followed to day 14
Method: as §5

C/C=C1\NC(=O)[C@H]2CSSCC/C=C/[C@H](CC(=O)N[C@H](C(C)C)C(=O)N2)OC(=O)[C@H](C(C)C)NC1=O [romidepsin]
effect on sarcosphere size (LM7 sarcospheres [1]): did not alter size | Cmax [2]: ~700 nM | Cmax ([2]; listed as Romidepsin): 700 nM | rank of ED50 among the 13 drugs (LM7 sarcospheres [3]): lowest ED50 | rank of ED50s among tested HDIs [4]: lowest ED50s | recovery of metabolic activity after a 24-hour exposure (LM7 sarcospheres [5]): sustained effect for 14 days | recovery of metabolic activity after a 24-hour exposure (143B sarcospheres): rapidly recovered

Source: article PMC12522106 (Cancer Research Communications, 2025)
